Source: ChEMBL document CHEMBL5247582 (Eur J Med Chem, 2022)
Calls of active or inactive are those of the source. The rule behind the calls is not given here.

Experiments:
Mus musculus [1] = assay: Anti-hyperuricemic activity against hypoxanthine/potassium oxonate-induced Kunming mouse model assessed as reduction in serum uric acid level at 2 mg/kg, sc measured after 4 hrs (reference value: 1010.00 +/- 51.16 uM); format: functional
Mus musculus [2] = assay: Anti-hyperuricemic activity against hypoxanthine/potassium oxonate-induced Kunming mouse model assessed as decrease in serum uric acid ratio at 2 mg/kg, sc measured after 4 hrs; format: functional; set-up: scale not given: the % may be the effect or the level left
[3] = target: T1, Solute carrier family 22 member 12 (Homo sapiens, UniProt Q96S37); assay: Inhibition of human URAT1 mediated 14C-uric acid uptake expressed in HEK293 cells using 14C-uric acid as substrate incubated for 30 mins by liquid scintillation counting analysis; format: cell-based
T1 sequence (Q96S37 whole entry): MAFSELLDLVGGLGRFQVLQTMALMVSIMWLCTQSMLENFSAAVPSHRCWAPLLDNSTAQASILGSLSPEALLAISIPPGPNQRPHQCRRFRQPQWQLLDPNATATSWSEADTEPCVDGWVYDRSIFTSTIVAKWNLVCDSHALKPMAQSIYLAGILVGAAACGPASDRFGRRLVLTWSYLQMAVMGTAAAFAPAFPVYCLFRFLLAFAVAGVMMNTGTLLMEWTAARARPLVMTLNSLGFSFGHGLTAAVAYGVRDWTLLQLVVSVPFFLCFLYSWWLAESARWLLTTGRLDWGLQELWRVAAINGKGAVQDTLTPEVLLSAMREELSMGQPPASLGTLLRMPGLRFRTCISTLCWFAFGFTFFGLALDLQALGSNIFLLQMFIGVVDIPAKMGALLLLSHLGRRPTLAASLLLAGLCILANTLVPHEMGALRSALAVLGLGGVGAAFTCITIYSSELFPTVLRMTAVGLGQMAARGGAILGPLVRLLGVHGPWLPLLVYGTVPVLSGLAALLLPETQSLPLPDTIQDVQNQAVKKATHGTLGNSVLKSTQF

[4] = target: T2, Solute carrier family 2, facilitated glucose transporter member 9 (Homo sapiens) (UniProt Q9NRM0); assay: Inhibition of GLUT9 (unknown origin) transfected in HEK293 cells assessed as inhibition of uric acid-induced current at 100 uM by whole cell patch clamp analysis; format: cell-based
T2 sequence (whole entry): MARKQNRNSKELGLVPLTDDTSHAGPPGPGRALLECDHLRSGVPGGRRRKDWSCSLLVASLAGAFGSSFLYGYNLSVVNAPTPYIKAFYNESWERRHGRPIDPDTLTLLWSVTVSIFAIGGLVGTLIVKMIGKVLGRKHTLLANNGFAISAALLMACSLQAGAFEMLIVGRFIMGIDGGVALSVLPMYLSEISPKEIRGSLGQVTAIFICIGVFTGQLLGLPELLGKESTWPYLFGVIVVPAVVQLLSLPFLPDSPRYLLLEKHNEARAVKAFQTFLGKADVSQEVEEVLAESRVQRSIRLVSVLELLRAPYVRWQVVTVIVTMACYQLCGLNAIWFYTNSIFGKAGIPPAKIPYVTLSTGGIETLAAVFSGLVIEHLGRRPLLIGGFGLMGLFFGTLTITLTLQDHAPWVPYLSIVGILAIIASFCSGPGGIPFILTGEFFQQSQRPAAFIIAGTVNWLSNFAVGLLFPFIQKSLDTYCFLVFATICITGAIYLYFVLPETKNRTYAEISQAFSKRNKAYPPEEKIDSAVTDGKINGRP

[5] = Acute toxicity in Kunming male mouse assessed as survival rate at 1000 mg/kg, IG; format: organism-based; conditions: in vivo, po, read-out: Activity
[6] = Acute toxicity in Kunming female mouse assessed as survival rate at 1000 mg/kg, IG; format: organism-based; conditions: in vivo, po, read-out: Activity
[7] = target: T3, Solute carrier family 2, facilitated glucose transporter member 9 (Homo sapiens, UniProt Q9NRM0); assay: Inhibition of GLUT9 (unknown origin) transfected in HEK293 cells assessed as inhibition of uric acid-induced current by whole cell patch clamp analysis; format: cell-based
T3 sequence (Q9NRM0 whole entry): T2 sequence (whole entry)

[8] = Acute toxicity in Kunming female mouse assessed as lethargy at 1000 mg/kg, IG; format: organism-based; conditions: in vivo, po
[9] = Acute toxicity in Kunming female mouse assessed as clonic convulsion at 1000 mg/kg, IG; format: organism-based; conditions: in vivo, po
[10] = Acute toxicity in Kunming female mouse assessed as anorexia at 1000 mg/kg, IG; format: organism-based; conditions: in vivo, po
[11] = Acute toxicity in Kunming female mouse assessed as ruffled fur at 1000 mg/kg, IG; format: organism-based; conditions: in vivo, po
[12] = Acute toxicity in Kunming female mouse assessed as effect on body weight changes at 1000 mg/kg, IG measured for 7 days; format: organism-based; conditions: in vivo, po, 168 h, time 7 day

Row | SMILES | Activity (Mus musculus [1]) | Activity (Mus musculus [2]) | IC50 [3] | other results
1 | CC(Sc1ccncc1C(=O)N1CCc2ccccc2C1)C(=O)O (configuration not stated) | 479.67 µM | 52.9% | – | –
2 | O=C(CSc1nc2sccc2c(=O)n1-c1ccc(C2CC2)c2ccccc12)NS(=O)(=O)c1ccccc1 | – | – | 11.4 µM | –
3 | O=C(O)CSc1nnc(Br)n1-c1ccc(C2CC2)c2ccccc12 | 763 µM | 26% | – | inhibition [4]: inactive; survival [5]: 40%; survival [6]: 20%
4 | O=C(c1cnccc1SC1(C(=O)O)CCC1)N1CCc2ccccc2C1 | 621.33 µM | 36% | – | –
5 | CCS(=O)(=O)NC(=O)CSc1nc2sccc2c(=O)n1-c1ccc(C2CC2)c2ccccc12 | 675.67 µM | 36.39% | 7.9 µM | –
6 | O=C(CSc1nc2sccc2c(=O)n1-c1ccc(C2CC2)c2ccccc12)NS(=O)(=O)c1ccc(C(F)(F)F)cc1 | – | – | 16.2 µM | –
7 | O=C(CSc1nc2sccc2c(=O)n1-c1ccc(C2CC2)c2ccccc12)NS(=O)(=O)c1cc(F)cc(F)c1 | 512.33 µM | 54.17% | 7.68 µM | –
8 | CC(C)(C)c1ccc(S(=O)(=O)NC(=O)CSc2nc3sccc3c(=O)n2-c2ccc(C3CC3)c3ccccc23)cc1 | – | – | 13.5 µM | –
9 | O=C(CSc1nc2sccc2c(=O)n1-c1ccc(C2CC2)c2ccccc12)NS(=O)(=O)c1ccc(Cl)cc1 | – | – | 11.9 µM | –
10 | O=C(CSc1nc2sccc2c(=O)n1-c1ccc(C2CC2)c2ccccc12)NS(=O)(=O)c1ccccc1[N+](=O)[O-] | – | – | 9.79 µM | –
11 | O=C(CSc1nc2sccc2c(=O)n1-c1ccc(C2CC2)c2ccccc12)NS(=O)(=O)C1CC1 | – | – | 11.6 µM | –
12 | O=C(O)CSc1nc2sccc2c(=O)n1-c1ccc(C2CC2)c2ccccc12 | – | – | – | IC50 ([3]; hek293): 3.27 µM
13 | O=C(CSc1nc2sccc2c(=O)n1-c1ccc(C2CC2)c2ccccc12)NS(=O)(=O)c1ccc(F)cc1 | – | – | 11.4 µM | –
14 | O=C(O)CSc1ccncc1C(=O)N1CCOc2ccccc21 | 802.33 µM | 14.4% | – | –
15 | O=C(CSc1nc2sccc2c(=O)n1-c1ccc(C2CC2)c2ccccc12)NS(=O)(=O)c1ccc(O)cc1 | – | – | 20.3 µM | –
16 | CC(Sc1ccncc1C(=O)N1CCOc2ccccc21)C(=O)O (configuration not stated) | 580 µM | 40.93% | – | –
17 | O=C(CSc1nc2sccc2c(=O)n1-c1ccc(C2CC2)c2ccccc12)NS(=O)(=O)c1cccc([N+](=O)[O-])c1 | – | – | 11.5 µM | –
18 | CS(=O)(=O)NC(=O)CSc1nc2sccc2c(=O)n1-c1ccc(C2CC2)c2ccccc12 | 533.67 µM | 51.85% | 7.31 µM | –
19 | O=C(CSc1nc2sccc2c(=O)n1-c1ccc(C2CC2)c2ccccc12)NS(=O)(=O)c1ccc([N+](=O)[O-])cc1 | – | – | 9.72 µM | –
20 | O=C(CSc1nc2sccc2c(=O)n1-c1ccc(C2CC2)c2ccccc12)NS(=O)(=O)c1ccc(Cl)s1 | – | – | 9.7 µM | –
21 | O=C(O)CSc1ccncc1C(=O)N1CCc2ccccc2C1 | 682.25 µM | 28.73% | – | –
22 | CC(C)(C)S(=O)(=O)NC(=O)CSc1nc2sccc2c(=O)n1-c1ccc(C2CC2)c2ccccc12 | – | – | 11.1 µM | –
23 | O=C(O)CCSc1ccncc1C(=O)N1CCOc2ccccc21 | 719.33 µM | 24.3% | – | –
24 | O=C(CSc1nc2sccc2c(=O)n1-c1ccc(C2CC2)c2ccccc12)NS(=O)(=O)c1ccc(F)cc1F | – | – | 9.92 µM | –
25 | CC(C)S(=O)(=O)NC(=O)CSc1nc2sccc2c(=O)n1-c1ccc(C2CC2)c2ccccc12 | – | – | 9.25 µM | –
26 | O=C(CSc1nc2sccc2c(=O)n1-c1ccc(C2CC2)c2ccccc12)NS(=O)(=O)c1ccc(Br)cc1 | 336.67 µM | 73.29% | 7.56 µM | IC50 [7]: 56 µM; survival [5]: 100%; survival [6]: 100%; Activity [8]: Non-Toxic; Activity [9]: Non-Toxic; Activity [10]: Non-Toxic; Activity [11]: Non-Toxic; Activity [12]: Non-Toxic
